Experimental data reported in US20110158908A1, “CYCLOSPORIN A-BINDING PROTEIN” (Sapporo Medical University, priority 2007, published 2011).

Columns and labels:
[1] = tested on: CSABP expression in normal human liver cells; assay: Induction of CSABP expression by inflammatory cytokine in normal human liver cells (real time PCR); type: cell-based; conditions: 8 hours
Procedure: Normal human liver cells (Primary Human Liver Hepatocyte Cells, DS PHARMA BIOMEDICAL CO., LTD., Cat. No. ABI-3716) were cultured in a 6 well plate at a density of 2×10^5 cells/well, and human IL-1β, TNFα, or IL-6 (all from BioSource) was added thereto to give a final concentration in the well of 1 pg/mL, 100 pg/mL, or 1 ng/mL respectively. 8 hours after the addition, the cells were collected, and expression of CSABP within the cells was quantitatively determined by real time PCR in the same manner as in Example 5 (2).

[2] = tested on: CSABP gene expression in MH14 cells; assay: Effect of anti-methylating agent on gene expression in MH14 cells (RT-PCR); type: cell-based, human; conditions: MH14 cells, 0.1, 0.5, 1.0 μM, 4 days
Procedure: 10^5 cells/well of MH14 cells (liver cancer cell line) were precultured in a 6 well plate with MH14 cell culture medium for 24 hours, and 5-aza-2′-deoxycytidine (Sigma) was then added thereto. Subsequently, medium exchange was carried out every 24 hours with a medium to which the methylation inhibitor had been added, and the cells were collected after 4 days. The amount of 5-aza-2′-deoxycytidine added was 0, 0.1, 0.5, and 1.0 μM. Total RNA was recovered from the cells thus collected in accordance with a standard method using an RNeasy kit (Qiagen, Cat. 74104). This total RNA was subjected to a reverse transcription reaction in accordance with a standard method using a Transcriptor First Strand cDNA Synthesis Kit (Roche, Cat. 04379012001), and the cDNA thus obtained was used as a template. The primer employed the above-mentioned CSABP primer (SEQ ID Nos: 5 and 6), and a PCR reaction was carried out in a Gotaq® PCR system (Promega) at 95° C., 5 minutes×1 cycle, 95° C., 0.5 minutes, 55° C., 0.5 minutes, 72° C., 2.5 minutes×35 cycles, 72° C., 7 minutes×1 cycle. As a positive control, a reaction was carried out in the same manner using the RASSF1A primers RASSF1A transcript variant D 391 to 415 forward primer: 5′-[…]-3′ (SEQ ID No: 38) and RASSF1A transcript variant D 635 to 660 reverse primer: 5′-[…]-3′ (SEQ ID No: 39), which is a gene for which a relationship between expression and DNA methylation in a promoter region has been shown by Cui X et al., Hum Pathol. 2006; 37 (3): 298-311. As an internal control, a reaction was carried out in the same manner using the above-mentioned G6PDH primer (SEQ ID Nos: 20 and 21).

[3] = molecular target: T1, recombinant full length CSABP protein (CSABP-FL) (Homo sapiens, UniProt Q9H6S0, S652N/T565S); assay: Molecular association with CSABP by SPR (Biacore 3000); type: binding; conditions: read-out: dissociation constant KD with CSABP
T1 construct: pET-CSABP-FL and pET-CSABP-C (FL=full length, C=C terminal region (CSABP ORF: 193rd to 1430th amino acids)); made in house; host or cells: E. coli BL21 (DE3)
T1 sequence (Q9H6S0 1-1430 T565S/S652N): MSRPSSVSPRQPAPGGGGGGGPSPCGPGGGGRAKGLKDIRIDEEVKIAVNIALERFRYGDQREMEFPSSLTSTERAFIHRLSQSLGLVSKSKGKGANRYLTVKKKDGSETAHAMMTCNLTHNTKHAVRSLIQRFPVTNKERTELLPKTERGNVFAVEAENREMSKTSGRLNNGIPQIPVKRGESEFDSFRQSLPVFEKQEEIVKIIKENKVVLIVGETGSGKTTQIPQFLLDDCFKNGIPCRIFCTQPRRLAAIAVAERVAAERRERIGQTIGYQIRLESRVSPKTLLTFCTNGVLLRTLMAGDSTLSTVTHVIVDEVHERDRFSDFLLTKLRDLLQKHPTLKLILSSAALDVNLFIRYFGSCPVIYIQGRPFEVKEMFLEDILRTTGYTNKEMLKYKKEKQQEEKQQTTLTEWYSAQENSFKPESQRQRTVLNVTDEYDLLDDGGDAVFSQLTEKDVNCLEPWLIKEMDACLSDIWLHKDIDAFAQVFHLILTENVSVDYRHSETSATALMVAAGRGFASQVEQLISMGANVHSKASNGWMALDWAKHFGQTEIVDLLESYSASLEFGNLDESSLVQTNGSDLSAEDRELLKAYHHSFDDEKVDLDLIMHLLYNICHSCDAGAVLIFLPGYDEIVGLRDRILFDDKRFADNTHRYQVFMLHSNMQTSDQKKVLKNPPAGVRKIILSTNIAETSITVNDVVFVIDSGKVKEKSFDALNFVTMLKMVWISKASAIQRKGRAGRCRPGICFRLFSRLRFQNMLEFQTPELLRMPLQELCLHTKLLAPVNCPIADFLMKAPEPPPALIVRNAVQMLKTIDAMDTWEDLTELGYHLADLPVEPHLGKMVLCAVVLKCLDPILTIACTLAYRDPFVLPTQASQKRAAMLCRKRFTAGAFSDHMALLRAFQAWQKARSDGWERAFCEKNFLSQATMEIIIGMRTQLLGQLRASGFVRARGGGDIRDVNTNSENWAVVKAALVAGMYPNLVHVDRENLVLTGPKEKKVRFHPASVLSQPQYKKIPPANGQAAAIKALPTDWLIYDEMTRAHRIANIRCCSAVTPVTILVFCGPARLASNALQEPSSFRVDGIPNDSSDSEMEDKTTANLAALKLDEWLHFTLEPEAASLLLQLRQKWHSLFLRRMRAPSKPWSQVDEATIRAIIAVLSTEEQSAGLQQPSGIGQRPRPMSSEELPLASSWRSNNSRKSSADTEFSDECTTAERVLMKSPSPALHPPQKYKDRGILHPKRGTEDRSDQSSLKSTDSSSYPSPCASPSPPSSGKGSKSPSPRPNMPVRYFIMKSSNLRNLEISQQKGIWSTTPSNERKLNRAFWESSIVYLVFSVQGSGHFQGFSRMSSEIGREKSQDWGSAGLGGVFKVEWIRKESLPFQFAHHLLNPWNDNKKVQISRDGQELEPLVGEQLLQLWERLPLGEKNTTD
Procedure: Molecular association between recombinant full length CSABP protein (CSABP-FL) and CsA was evaluated by an SPR (surface plasmon resonance) method. SPR measurement employed Biacore 3000 (Biacore). A purified recombinant CSABP protein was immobilized on Biacore chip CM5 by an amine coupling method (amount immobilized about 10000).

For “IL-1β: human inflammatory cytokine (BioSource)”, the “amount of expression of CSABP compared with the control” value (“amount … compared with the control” for short) ([1]; 1 pg/mL) was “some increase”.

Nc1ncn([C@H]2C[C@H](O)[C@@H](CO)O2)c(=O)n1 [5-aza-2′-deoxycytidine] was tested, and the “amount of expression of the CSABP gene” value [2] was “increase”, the cytotoxicity [2] was “no cytotoxicity was observed” and the “expression of RASSF1A (positive control gene)” value [2] was “increased”.

C=CC[C@@H]1/C=C(\C)C[C@H](C)C[C@H](OC)[C@H]2O[C@@](O)(C(=O)C(=O)N3CCCC[C@H]3C(=O)O[C@H](/C(C)=C/[C@@H]3CC[C@@H](O)[C@H](OC)C3)[C@H](C)[C@@H](O)CC1=O)[C@H](C)C[C@@H]2OC [FK506] showed a Kd [3] of 2500 nM.

In the case of TNF-α, the “amount … compared with the control” value ([1]; 100 pg/mL) is reported as “about 1.8 times”.

“IL-6: human inflammatory cytokine (BioSource)” was tested, and the “amount … compared with the control” value ([1]; 1 ng/mL) was “some increase”.
